From patent publication US10377753B2, “Substituted 4-azaindoles and their use as GluN2B receptor modulators” (Janssen Pharmaceutica NV, priority 2015, dated 2019)
Structures can show the parent of a compound that is named as a salt.

Biological target: cloned human NR1/NR2B ion channels (Homo sapiens (Human), UniProt Q05586+Q13224)
Test: HNR2BC: effects of test articles on cloned human NR1/NR2B ion channels expressed in mammalian cells (FLIPR calcium flux)
Assay type: cell-based
Settings: Table 5
Method in brief: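 In a stable Tet-On-induced cell line expressing human GluN1/GluN2B, Calcium 5-loaded cells were preincubated 5 min with compound, then stimulated 5 min with glutamate at ~EC80 plus 10 μM glycine, in pH 7.4 HEPES buffer. FLIPR calcium fluorescence was normalized to control wells.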

[1] = cloned human NR1/NR2B ion channels

cloned human NR1/NR2B ion channels, sequence (Q13224 27-1484, other chains not shown): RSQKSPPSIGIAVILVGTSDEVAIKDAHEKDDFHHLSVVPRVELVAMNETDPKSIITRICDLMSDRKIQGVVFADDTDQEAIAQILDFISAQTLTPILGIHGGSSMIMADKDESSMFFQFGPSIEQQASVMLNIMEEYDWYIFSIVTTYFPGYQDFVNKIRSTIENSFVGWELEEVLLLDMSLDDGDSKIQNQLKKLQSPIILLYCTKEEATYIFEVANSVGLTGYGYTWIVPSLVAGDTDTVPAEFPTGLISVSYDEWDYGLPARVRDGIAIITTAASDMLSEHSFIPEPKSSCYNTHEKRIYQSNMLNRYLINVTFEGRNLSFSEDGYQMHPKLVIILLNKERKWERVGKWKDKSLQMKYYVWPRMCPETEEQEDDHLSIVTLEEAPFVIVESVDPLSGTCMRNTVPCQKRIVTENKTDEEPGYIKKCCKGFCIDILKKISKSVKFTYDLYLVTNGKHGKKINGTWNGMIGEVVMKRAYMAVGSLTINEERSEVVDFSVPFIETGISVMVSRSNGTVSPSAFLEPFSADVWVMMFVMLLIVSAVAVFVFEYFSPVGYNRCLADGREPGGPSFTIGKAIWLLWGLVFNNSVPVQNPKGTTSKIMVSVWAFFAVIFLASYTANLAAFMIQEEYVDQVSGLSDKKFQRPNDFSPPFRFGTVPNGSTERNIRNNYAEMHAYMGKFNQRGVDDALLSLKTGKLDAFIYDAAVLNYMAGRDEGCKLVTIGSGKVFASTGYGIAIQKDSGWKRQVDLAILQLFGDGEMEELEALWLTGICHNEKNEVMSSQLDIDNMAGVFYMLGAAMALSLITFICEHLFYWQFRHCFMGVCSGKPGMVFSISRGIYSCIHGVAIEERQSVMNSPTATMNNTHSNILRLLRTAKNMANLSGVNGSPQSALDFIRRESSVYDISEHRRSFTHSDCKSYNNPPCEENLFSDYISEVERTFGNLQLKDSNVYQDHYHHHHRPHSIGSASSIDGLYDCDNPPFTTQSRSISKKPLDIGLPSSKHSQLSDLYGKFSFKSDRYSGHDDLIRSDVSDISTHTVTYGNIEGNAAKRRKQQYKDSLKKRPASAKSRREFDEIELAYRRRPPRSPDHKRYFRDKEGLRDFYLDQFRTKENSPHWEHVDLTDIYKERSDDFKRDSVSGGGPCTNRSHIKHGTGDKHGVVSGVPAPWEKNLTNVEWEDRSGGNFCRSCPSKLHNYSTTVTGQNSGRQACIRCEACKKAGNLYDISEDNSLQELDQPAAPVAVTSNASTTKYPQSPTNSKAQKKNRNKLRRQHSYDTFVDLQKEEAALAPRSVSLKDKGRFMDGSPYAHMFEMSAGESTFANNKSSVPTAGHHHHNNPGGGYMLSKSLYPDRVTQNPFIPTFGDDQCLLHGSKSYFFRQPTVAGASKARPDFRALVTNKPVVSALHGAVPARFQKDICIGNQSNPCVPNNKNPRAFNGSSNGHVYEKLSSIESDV

Row | SMILES | IC50 (cloned human NR1/NR2B) | IC50 [1]
1 | O=C(Cn1ccc2ncc(-c3ccccc3)cc21)N1CCC1 [Example 354, 1-(Azetidin-1-yl)-2-(6-phenylpyrrolo[3,2-b]pyridin-1-yl)ethanone] | 0.0316 µM | –
2 | O=C(Cn1ccc2ncc(-c3cc(F)cc(F)c3)cc21)N1CCC1 [Example 355, 1-(Azetidin-1-yl)-2-[6-(3,5-difluorophenyl)pyrrolo[3,2-b]pyridin-1-yl]ethanone] | 0.0501 µM | –
3 | Cc1cccc(-c2cnc3ccn(CC(=O)N4CCC4)c3c2)c1 [Example 356, 1-(Azetidin-1-yl)-2-[6-(m-tolyl)pyrrolo[3,2-b]pyridin-1-yl]ethanone trifluoroacetate salt] | 0.02 µM | –
4 | O=C(Cn1ccc2ncc(-c3ccc(Cl)c(Cl)c3)cc21)N1CCC1 [Example 357, 1-(Azetidin-1-yl)-2-[6-(3,4-dichlorophenyl)pyrrolo[3,2-b]pyridin-1-yl]ethanone trifluoroacetate salt] | 0.02 µM | –
5 | O=C(Cn1ccc2ncc(-c3cccc(C(F)(F)F)c3F)cc21)N1CCC1 [Example 358, 1-(Azetidin-1-yl)-2-[6-[2-fluoro-3-(trifluoromethyl)phenyl]pyrrolo[3,2-b]pyridin-1-yl]ethanone trifluoroacetate salt] | 0.0398 µM | –
6 | Cc1csc(-c2cnc3ccn(CC(=O)N4CCC4)c3c2)c1 [Example 359, 1-(Azetidin-1-yl)-2-[6-(4-methyl-2-thienyl)pyrrolo[3,2-b]pyridin-1-yl]ethanone trifluoroacetate salt] | 0.0316 µM | –
7 | Cc1cc(-c2cnc3c(Cl)cn(CC(=O)N4CCC4)c3c2)ccc1F [Example 360, 1-(Azetidin-1-yl)-2-[3-chloro-6-(4-fluoro-3-methyl-phenyl)pyrrolo[3,2-b]pyridin-1-yl]ethanone] | 0.0316 µM | –
8 | O=C(Cn1ccc2ncc(-c3ccc(F)c(F)c3)cc21)N1CC(F)(F)C1 [Example 361, 1-(3,3-Difluoroazetidin-1-yl)-2-[6-(3,4-difluorophenyl)pyrrolo[3,2-b]pyridin-1-yl]ethanone] | 0.0251 µM | –

The next lines start with the values.

Row | IC50 (cloned human NR1/NR2B) | IC50 [1] | SMILES
9 | 0.0316 µM | – | O=C(Cn1ccc2ncc(-c3cccc(C(F)(F)F)n3)cc21)N1CCC1 [Example 362, 1-(Azetidin-1-yl)-2-[6-[6-(trifluoromethyl)-2-pyridyl]pyrrolo[3,2-b]pyridin-1-yl]ethanone]
10 | 0.0794 µM | – | O=C(Cn1ccc2ncc(-c3cc(F)c(F)c(F)c3)cc21)N1CCC1 [Example 363, 1-(Azetidin-1-yl)-2-[6-(3,4,5-trifluorophenyl)pyrrolo[3,2-b]pyridin-1-yl]ethanone]
11 | 0.02 µM | – | CC(C)C(=O)Cn1ccc2ncc(-c3cc(F)cc(F)c3)cc21 [Example 364, 1-[6-(3,5-Difluorophenyl)pyrrolo[3,2-b]pyridin-1-yl]-3-methyl-butan-2-one]
12 | 0.02 µM | – | O=C(Cn1ccc2ncc(-c3ccc(F)cc3)cc21)C1CCC1 [Example 365, 1-Cyclobutyl-2-[6-(4-fluorophenyl)pyrrolo[3,2-b]pyridin-1-yl]ethanone]
13 | 0.0316 µM | – | CCc1cccc(-c2cnc3ccn(CC(=O)NC4CC4)c3c2)c1 [Example 366, N-Cyclopropyl-2-[6-(3-ethylphenyl)pyrrolo[3,2-b]pyridin-1-yl]acetamide]
14 | – | 0.0501 µM | O=C(Cn1ccc2ncc(-c3ccc(F)c(F)c3)cc21)N1CCCC1 [Example 367, 2-[6-(3,4-Difluorophenyl)pyrrolo[3,2-b]pyridin-1-yl]-1-pyrrolidin-1-yl-ethanone]
15 | – | 0.0251 µM | Cc1csc(-c2cnc3ccn(CC(=O)N4CC(F)(F)C4)c3c2)c1 [Example 368, 1-(3,3-Difluoroazetidin-1-yl)-2-[6-(4-methyl-2-thienyl)pyrrolo[3,2-b]pyridin-1-yl]ethanone]
16 | – | 0.02 µM | Cc1csc(-c2cnc3ccn(CC(=O)N4CCCC4)c3c2)c1 [Example 369, 2-[6-(4-Methyl-2-thienyl)pyrrolo[3,2-b]pyridin-1-yl]-1-pyrrolidin-1-yl-ethanone]
17 | – | 0.0316 µM | Cc1csc(-c2cnc3ccn(CC(=O)N4CC(F)C4)c3c2)c1 [Example 370, 1-(3-Fluoroazetidin-1-yl)-2-[6-(4-methyl-2-thienyl)pyrrolo[3,2-b]pyridin-1-yl]ethanone]
